Among the data in patent US9765092B2, “Tricyclic piperidine compounds” (ACTELION PHARMACEUTICALS LTD, priority 2013, dated 2017) are IC50 values, retold here.

For this assay, the target named is human TPH1 (Homo sapiens (Human), UniProt P17752). Put plainly: Biochemical in vitro assay using fluorescence readout (TPH1 inhibition).
The mark [1] stands for this setting: human TPH1, fluorescence readout.

Sequence of human TPH1 (P17752 whole entry): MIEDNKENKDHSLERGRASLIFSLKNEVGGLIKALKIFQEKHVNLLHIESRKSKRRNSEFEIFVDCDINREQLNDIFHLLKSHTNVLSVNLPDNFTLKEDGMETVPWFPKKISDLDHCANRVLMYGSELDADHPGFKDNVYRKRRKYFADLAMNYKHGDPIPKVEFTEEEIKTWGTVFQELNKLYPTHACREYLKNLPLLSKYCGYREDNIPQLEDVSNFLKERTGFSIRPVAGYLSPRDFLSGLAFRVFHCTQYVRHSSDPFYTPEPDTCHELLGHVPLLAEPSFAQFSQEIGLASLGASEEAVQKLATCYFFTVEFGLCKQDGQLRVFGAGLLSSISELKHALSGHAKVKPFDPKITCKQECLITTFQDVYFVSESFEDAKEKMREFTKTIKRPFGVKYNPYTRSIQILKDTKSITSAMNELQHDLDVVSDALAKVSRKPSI

What is called IC50 is the concentration that inhibits the measured activity by half. `Cc1nn2c3c(nc2s1)CCN(C(=O)COc1ccc(N2CCOCC2)nc1Cl)C3c1cnc(N2CCOCC2)s1` (stereo not shown) [Example 1.7.2, 2-((2-chloro-6-morpholinopyridin-3-yl)oxy)-1-(2-methyl-5-(2-morpholinothiazol-5-yl)-7,8-dihydro-[1,3,4]thiadiazolo [2′,3′:2,3]imidazo[4,5-c]pyridin-6(5H)-yl)ethanone]: the IC50 under setting [1] was 32 nM.
The same measure, in the same setting: the value for `Cc1cnc(C2c3c(nc4sc(C)nn34)CCN2C(=O)COc2ccc(C(F)(F)F)cc2Cl)c(F)c1` (stereo not shown) [Example 1.31.1, 2-(2-chloro-4-(trifluoromethyl)phenoxy)-1-(5-(3-fluoro-5-methylpyridin-2-yl)-2-methyl-7,8-dihydro-[1,3,4]thiadiazolo [2′,3′:2,3]imidazo[4,5-c]pyridin-6(5H)-yl)ethanone] was 14 nM; that for `Cc1nn2c3c(nc2s1)CCN(C(=O)COc1ccc(C#N)nc1Cl)C3c1ccc(C2CC2)cc1F` (stereo not shown) [Example 1.6.23, 6-chloro-5-(2-(5-(4-cyclopropyl-2-fluorophenyl)-2-methyl-7,8-dihydro-[1,3,4]thiadiazolo[2′,3′:2,3]imidazo[4,5-c]pyridin-6(5H)-yl)-2-oxoethoxy)picolinonitrile] was 8 nM; that for `CCc1nc(N2CCCS2(=O)=O)ccc1OCC(=O)N1CCc2nc3sc(C(F)F)nn3c2C1c1ccc(Cl)cc1F` (stereo not shown) [Example 8.1.3, 1-(5-(4-chloro-2-fluorophenyl)-2-(difluoromethyl)-7,8-dihydro-[1,3,4]thiadiazolo[2′,3′:2,3]imidazo[4,5-c]pyridin-6(5H)-yl)-2-((6-(1,1-dioxidoisothiazolidin-2-yl)-2-ethylpyridin-3-yl)oxy)ethanone] was 7 nM.
Still for that read-out and setting: then `CCc1nc(C(=O)NC2CC2)ccc1OCC(=O)N1CCc2nc3sc(C)nn3c2C1c1sccc1F` (stereo not shown) [Example 1.71.1, N-cyclopropyl-6-ethyl-5-(2-(5-(3-fluorothiophen-2-yl)-2-methyl-7,8-dihydro-[1,3,4]thiadiazolo[2′,3′:2,3]-imidazo[4,5-c]pyridin-6(5H)-yl)-2-oxoethoxy)picolinamide], with 12 nM; and `CS(=O)(=O)Nc1ccc(OCC(=O)N2CCc3nc4sc(C5CC5)nn4c3C2c2ccc(Cl)cc2F)c(Cl)n1` (stereo not shown) [Example 4.1.1, N-(6-chloro-5-(2-(5-(4-chloro-2-fluorophenyl)-2-cyclopropyl-7,8-dihydro-[1,3,4]thiadiazolo-[2′,3′:2,3]imidazo[4,5-c]pyridin-6(5H)-yl)-2-oxoethoxy)pyridin-2-yl)methanesulfonamide], with 16 nM.
The compound `Cc1nn2c3c(nc2s1)CCN(C(=O)COc1ccc(CN2CCOCC2)nc1Cl)C3c1cccnc1F` (stereo not shown) [Example 1.2.1, 2-((2-chloro-6-(morpholinomethyl)pyridin-3-yl)oxy)-1-(5-(2-fluoropyridin-3-yl)-2-methyl-7,8-dihydro-[1,3,4]thiadiazolo[2′,3′:2,3]imidazo[4,5-c]pyridine-6(5H)yl) ethanone] showed a half-maximal inhibitory concentration (IC50) under setting [1] of 208 nM.
`CCc1c(OCC(=O)N2CCc3nc4sc(C)nn4c3C2c2ccc(C3CC3)cc2F)ccc(C)[n+]1[O-]` (stereo not shown) [Example 1.6.20, 3-(2-(5-(4-cyclopropyl-2-fluorophenyl)-2-methyl-7,8-dihydro-[1,3,4]thiadiazolo[2′,3′:2,3]imidazo[4,5-c]pyridin-6(5H)-yl)-2-oxoethoxy)-2-ethyl-6-methylpyridine-1-oxide] returned an IC50 under setting [1] of 94 nM.
The compound `Cc1nn2c3c(nc2s1)CCN(C(=O)COc1ccc(C(=O)N(C)C)nc1Cl)C3c1ncccc1F` (stereo not shown) [Example 1.35.2, 6-chloro-5-(2-(5-(3-fluoropyridin-2-yl)-2-methyl-7,8-dihydro-[1,3,4]thiadiazolo[2′,3′:2,3]imidazo[4,5-c]pyridin-6(5H)-yl)-2-oxoethoxy)-N,N-dimethylpicolinamide] showed an IC50 under setting [1] of 45 nM.
Consider `Cc1nn2c3c(nc2s1)CCN(C(=O)C1(Oc2ccc(C(=O)N(C)C)nc2Cl)CC1)C3c1ccc(Cl)cc1F` (stereo not shown) [Example 1.4.57, 6-chloro-5-(1-(5-(4-chloro-2-fluorophenyl)-2-methyl-5,6,7,8-tetrahydro-[1,3,4]thiadiazolo[2′,3′:2,3]imidazo[4,5-c]pyridine-6-carbonyl)cyclopropoxy)-N,N-dimethylpicolinamide], for which the half-inhibitory concentration (IC50) under setting [1] came out at 39 nM.
Compound `Cc1nn2c3c(nc2s1)CCN(C(=O)COc1ccc(N2CCC(F)(F)CC2)nc1Cl)C3c1ccc(Cl)cc1F` (stereo not shown) [Example 1.4.32, 1-(5-(4-Chloro-2-fluorophenyl)-2-methyl-7,8-dihydro-[1,3,4]thiadiazolo[2′,3′:2,3]imidazo[4,5-c]pyridin-6(5H)-yl)-2-((2-chloro-6-(4,4-difluoropiperidin-1-yl)pyridin-3-yl)oxy)ethanone] showed a 50% inhibitory concentration (IC50) (full length human TPH1, 40 μM L-tryptophan, 15° C., 60 minutes, fluorescence at 540 nm, mean if determined several times) of 3 nM.
Compound “N-(5-(2-(5-(4-(aminomethyl)-2-fluorophenyl)-2-methyl-7,8-dihydro-[1,3,4]thiadiazolo[2′,3′:2,3]imidazo[4,5-c]pyridin-6(5H)-yl)-2-oxoethoxy)-6-chloropyridin-2-yl)methanesulfonamide [Example 1.78.1]” gave an IC50 under setting [1] of 10 nM.
On the same count and under the same terms, the value for `CS(=O)(=O)Nc1ccc(OCC(=O)N2CCc3nc4sc(C(F)F)nn4c3[C@@H]2c2ccc(Cl)cc2F)c(Cl)n1` [Example 8.1.4] was 12 nM.
On the same count and under the same terms, the value for `CNC(=O)c1ccc(OCC(=O)N2CCc3nc4sccn4c3C2c2sccc2F)c(Cl)n1` (stereo not shown) [Example 6.8.3, 6-chloro-5-(2-(5-(3-fluorothiophen-2-yl)-7,8-dihydro-thiazolo[2′,3′:2,3]imidazo[4,5-c]pyridin-6(5H)-yl)-2-oxoethoxy)-N-methylpicolinamide] was 9 nM.
On to `COC(=O)c1ccc(C2c3c(nc4sc(C)nn34)CCN2C(=O)COc2ccc(NS(C)(=O)=O)nc2Cl)c(F)c1` (stereo not shown) [Example 1.79.1, methyl-4-(6-(2-((2-chloro-6-(methylsulfonamido)pyridin-3-yl)oxy)acetyl)-2-methyl-5,6,7,8-tetrahydro-[1,3,4]thiadiazolo[2′,3′:2,3]imidazo[4,5-c]pyridin-5-yl)-3-fluorobenzoate], for which the IC50 under setting [1] was 17 nM.
`COC1(C)CN(c2ccc(OCC(=O)N3CCc4nc5sc(C)nn5c4[C@@H]3c3ncc(C)cc3F)c(Cl)n2)C1` [Example 1.31.11, (R)-2-((2-chloro-6-(3-methoxy-3-methylazetidin-1-yl)pyridin-3-yl)oxy)-1-(5-(3-fluoro-5-methylpyridin-2-yl)-2-methyl-7,8-dihydro-[1,3,4]thiadiazolo[2′,3′:2,3]imidazo[4,5-c]pyridin-6(5H)-yl)ethanone] yielded an IC50 under setting [1] of 23 nM.
Still for that read-out and setting: the value for `CCc1nc(C(=O)NC2CC2)ccc1OCC(=O)N1CCc2nc3sc(CF)nn3c2C1c1sc(C)nc1C` (stereo not shown) [Example 7.4.1, N-cyclopropyl-5-(2-(5-(2,4-dimethylthiazol-5-yl)-2-(fluoromethyl)-7,8-dihydro-[1,3,4]thiadiazolo[2′,3′:2,3]imidazo[4,5-c]pyridin-6(5H)-yl)-2-oxoethoxy)-6-ethylpicolinamide] was 7 nM.
The same measure, in the same setting: the value for “2-((2-chloro-6-morpholinopyridin-3-yl)oxy)-1-(5-(4-(2-hydroxypropan-2-yl)thiophen-2-yl)-2-methyl-7,8-dihydro-[1,3,4]thiadiazolo[2′,3′:2,3]imidazo[4,5-c]pyridin-6(5H)-yl)ethanone [Example 1.19.1]” was 6 nM; that for `CCc1nc(NS(C)(=O)=O)ccc1OCC(=O)N1CCc2nc3sc(C(F)(F)F)nn3c2C1c1ccc(Cl)cc1F` (stereo not shown) [Example 5.1.2, N-(5-(2-(5-(4-chloro-2-fluorophenyl)-2-(trifluoromethyl)-7,8-dihydro-[1,3,4]thiadiazolo[2′,3′:2,3]imidazo[4,5-c]pyridin-6(5H)-yl)-2-oxoethoxy)-6-ethylpyridin-2-yl)methanesulfonamide] was 32 nM.
`COc1nc(NS(C)(=O)=O)ccc1OCC(=O)N1CCc2nc3sc(C)nn3c2[C@@H]1c1ncc(C)cc1F` [Example 1.31.20, (R)-N-(5-(2-(5-(3-fluoro-5-methylpyridin-2-yl)-2-methyl-7,8-dihydro-[1,3,4]thiadiazolo[2′,3′:2,3]imidazo[4,5-c]pyridin-6(5H)-yl)-2-oxoethoxy)-6-methoxypyridin-2-yl)methanesulfonamide] came in with an IC50 under setting [1] of 77 nM.
For the compound `CNC(=O)c1cc(F)c(C2c3c(nc4sc(C)nn34)CCN2C(=O)COc2ccc(N3CCOCC3)nc2Cl)s1` (stereo not shown) [Example 1.25.1, 5-(6-(2-((2-chloro-6-morpholinopyridin-3-yl)oxy)acetyl)-2-methyl-5,6,7,8-tetrahydro-[1,3,4]thiadiazolo[2′,3′:2,3]imidazo[4,5-c]pyridin-5-yl)-4-fluoro-N-methylthiophene-2-carboxamide], under setting [1], half-maximal inhibition (IC50) required 5 nM.
On the same count and under the same terms, the value for `COC(=O)c1cnc(C2c3c(nc4sc(C)nn34)CCN2C(=O)COc2ccc(N3CCOCC3)nc2Cl)s1` (stereo not shown) [Example 1.28.1, Methyl 2-(6-(2-((2-chloro-6-morpholinopyridin-3-yl)oxy)acetyl)-2-methyl-5,6,7,8-tetrahydro-[1,3,4]thiadiazolo [2′,3′:2,3]imidazo[4,5-c]pyridin-5-yl)thiazole-5-carboxylate] was 7 nM.
The same measure, in the same setting: the value for `Cc1nn2c3c(nc2s1)CCN(C(=O)COc1ccc(NS(C)(=O)=O)nc1Cl)C3c1sc(C(=O)N(C)C)cc1F` (stereo not shown) [Example 1.24.9, 5-(6-(2-((2-chloro-6-(methylsulfonamido)pyridin-3-yl)oxy)acetyl)-2-methyl-5,6,7,8-tetrahydro-[1,3,4]thiadiazolo [2′,3′:2,3]imidazo[4,5-c]pyridin-5-yl)-4-fluoro-N,N-dimethylthiophene-2-carboxamide] was 6 nM.
On the same count and under the same terms, then `Cc1nn2c3c(nc2s1)CCN(C(=O)COc1ccc(S(=O)(=O)N(C)C)nc1Cl)C3c1ccc(Cl)cc1F` (stereo not shown) [Example 1.4.61, 6-chloro-5-(2-(5-(4-chloro-2-fluorophenyl)-2-methyl-7,8-dihydro-[1,3,4]thiadiazolo[2′,3′:2,3]imidazo[4,5-c]pyridin-6(5H)-yl)-2-oxoethoxy)-N,N-dimethylpyridine-2-sulfonamide], with 37 nM.
For `Cc1cc(Cl)ccc1OCC(=O)N1CCc2nc3sccn3c2C1c1cccnc1F` (stereo not shown) [Example 6.2.5, 2-(4-chloro-2-methylphenoxy)-1-(5-(2-fluoropyridin-3-yl)-7,8-dihydrothiazolo[2′,3′:2,3]imidazo[4,5-c]pyridin-6(5H)-yl)ethanone], 26 nM corresponded to half-maximal inhibition under setting [1] (IC50).
